In ChEMBL document CHEMBL1147554, “Novel pyrrole-containing progesterone receptor modulators” (Bioorg Med Chem Lett, 2004):
Activity calls are given as the source filed them. The rule behind the calls is not given here.

Legend:
Progesterone receptor [1] = target: T1, Progesterone receptor (Homo sapiens, UniProt P06401); assay: Agonistic activity as progesterone receptor induced alkaline phosphatase activity in T47D human breast cancer cells; type: functional, cell-based
T1 sequence (P06401 whole entry): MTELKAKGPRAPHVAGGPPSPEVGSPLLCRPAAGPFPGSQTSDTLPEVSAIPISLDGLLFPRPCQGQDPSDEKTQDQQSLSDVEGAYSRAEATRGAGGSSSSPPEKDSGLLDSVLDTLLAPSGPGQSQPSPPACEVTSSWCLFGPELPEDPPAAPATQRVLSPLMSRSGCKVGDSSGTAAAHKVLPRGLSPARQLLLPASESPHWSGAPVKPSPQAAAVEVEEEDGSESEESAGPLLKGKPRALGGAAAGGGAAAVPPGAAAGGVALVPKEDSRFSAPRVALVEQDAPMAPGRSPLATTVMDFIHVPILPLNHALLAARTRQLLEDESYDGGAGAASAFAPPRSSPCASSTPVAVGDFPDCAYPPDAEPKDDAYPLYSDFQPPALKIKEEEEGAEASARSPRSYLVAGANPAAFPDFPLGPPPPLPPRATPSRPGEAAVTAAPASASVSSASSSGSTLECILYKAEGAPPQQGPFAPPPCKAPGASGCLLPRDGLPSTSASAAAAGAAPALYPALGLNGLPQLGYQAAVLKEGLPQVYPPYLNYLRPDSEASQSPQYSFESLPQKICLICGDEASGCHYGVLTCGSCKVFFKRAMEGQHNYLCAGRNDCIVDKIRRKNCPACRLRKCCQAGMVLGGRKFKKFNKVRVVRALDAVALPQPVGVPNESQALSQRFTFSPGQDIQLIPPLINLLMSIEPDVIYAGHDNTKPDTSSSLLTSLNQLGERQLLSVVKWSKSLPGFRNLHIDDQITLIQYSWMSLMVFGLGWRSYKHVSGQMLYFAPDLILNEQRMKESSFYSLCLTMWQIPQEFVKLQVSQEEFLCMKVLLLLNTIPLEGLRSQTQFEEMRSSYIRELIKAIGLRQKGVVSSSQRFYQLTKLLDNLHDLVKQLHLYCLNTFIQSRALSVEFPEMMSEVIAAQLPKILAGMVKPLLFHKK

[2] = target: T2, Progesterone receptor (Rattus norvegicus) (UniProt Q63449); assay: Percentage inhibition of progesterone-induced stimulation when administered orally at 10 mg/kg in rat decidualization assay; type: functional, organism-based; set-up: dose 10 mg/kg
T2 sequence (whole entry): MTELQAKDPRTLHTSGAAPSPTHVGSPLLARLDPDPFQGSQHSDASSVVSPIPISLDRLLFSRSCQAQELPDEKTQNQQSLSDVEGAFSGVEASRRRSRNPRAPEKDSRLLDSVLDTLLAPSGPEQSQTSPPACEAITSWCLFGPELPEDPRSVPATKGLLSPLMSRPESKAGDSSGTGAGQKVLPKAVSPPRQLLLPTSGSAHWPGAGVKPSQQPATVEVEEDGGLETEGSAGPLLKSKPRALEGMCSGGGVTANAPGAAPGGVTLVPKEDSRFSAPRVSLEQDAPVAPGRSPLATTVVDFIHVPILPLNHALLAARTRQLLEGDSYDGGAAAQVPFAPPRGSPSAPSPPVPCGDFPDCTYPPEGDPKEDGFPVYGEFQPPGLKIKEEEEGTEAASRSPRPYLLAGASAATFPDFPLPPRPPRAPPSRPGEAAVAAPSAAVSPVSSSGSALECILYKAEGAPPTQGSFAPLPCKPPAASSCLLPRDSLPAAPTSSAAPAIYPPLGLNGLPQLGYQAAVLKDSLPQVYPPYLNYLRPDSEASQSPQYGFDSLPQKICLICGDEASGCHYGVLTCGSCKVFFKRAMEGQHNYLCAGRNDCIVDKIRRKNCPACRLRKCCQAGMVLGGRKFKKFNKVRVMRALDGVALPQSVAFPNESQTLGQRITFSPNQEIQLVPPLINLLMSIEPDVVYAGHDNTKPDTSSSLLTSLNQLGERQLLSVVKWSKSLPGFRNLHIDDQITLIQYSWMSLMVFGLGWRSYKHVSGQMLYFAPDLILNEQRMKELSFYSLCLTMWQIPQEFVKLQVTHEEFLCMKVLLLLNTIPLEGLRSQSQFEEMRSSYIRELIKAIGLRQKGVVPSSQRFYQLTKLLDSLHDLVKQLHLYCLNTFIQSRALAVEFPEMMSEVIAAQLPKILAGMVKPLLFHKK

[3] = target: T3, Progesterone receptor (Homo sapiens) (UniProt P06401); assay: Efficacy in vitro relative to P4 in progesterone receptor induced alkaline phosphatase T47D cell assay; type: functional, cell-based
T3 sequence (whole entry): T1 sequence (P06401 whole entry)

[4] = Displacement of [3H]progesterone at progesterone receptor of T47D cells; type: cell-based, Homo sapiens
Progesterone receptor [5] = target: T1, Progesterone receptor; assay: Ability to block progesterone induced alkaline phosphatase activity in T47D human breast cancer cell line; type: functional, cell-based
Progesterone receptor [6] = target: T1, Progesterone receptor; assay: Agonistic activity measures the ability to induce alkaline phosphatase in T47D human breast cancer cell line; type: functional, cell-based
[7] = Agonistic activity for glucocorticoid receptor up to 10 uM; Not active; type: functional
[8] = target: T4, Androgen receptor (Homo sapiens) (UniProt P10275); assay: Agonistic activity for androgen receptor up to 10 uM; Not active; type: functional
T4 sequence (whole entry): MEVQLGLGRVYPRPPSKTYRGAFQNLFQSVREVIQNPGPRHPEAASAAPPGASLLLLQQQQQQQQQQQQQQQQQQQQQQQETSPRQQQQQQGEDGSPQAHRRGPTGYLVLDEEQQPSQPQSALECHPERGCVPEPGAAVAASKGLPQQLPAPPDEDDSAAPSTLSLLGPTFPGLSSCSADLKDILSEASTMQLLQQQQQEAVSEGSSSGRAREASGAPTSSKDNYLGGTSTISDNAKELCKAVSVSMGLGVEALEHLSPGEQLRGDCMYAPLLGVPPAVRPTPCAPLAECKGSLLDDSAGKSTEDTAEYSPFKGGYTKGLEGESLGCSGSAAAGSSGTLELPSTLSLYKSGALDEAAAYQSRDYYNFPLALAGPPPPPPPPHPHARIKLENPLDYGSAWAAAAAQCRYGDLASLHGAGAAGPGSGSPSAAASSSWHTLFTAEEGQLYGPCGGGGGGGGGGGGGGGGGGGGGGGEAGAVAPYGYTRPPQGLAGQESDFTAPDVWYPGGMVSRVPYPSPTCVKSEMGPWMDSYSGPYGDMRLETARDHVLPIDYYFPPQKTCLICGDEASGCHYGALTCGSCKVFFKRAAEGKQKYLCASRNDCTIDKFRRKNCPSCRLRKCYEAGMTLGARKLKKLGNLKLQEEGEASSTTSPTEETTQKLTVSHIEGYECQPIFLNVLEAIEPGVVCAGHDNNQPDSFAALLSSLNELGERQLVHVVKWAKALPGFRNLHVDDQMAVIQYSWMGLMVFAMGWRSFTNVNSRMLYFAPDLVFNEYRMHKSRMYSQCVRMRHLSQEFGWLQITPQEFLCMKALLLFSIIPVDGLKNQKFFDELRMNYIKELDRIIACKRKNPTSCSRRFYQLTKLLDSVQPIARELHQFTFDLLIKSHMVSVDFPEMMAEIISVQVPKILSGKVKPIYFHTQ

[9] = Antagonist activity for glucocorticoid receptor; type: functional
Androgen receptor = target: T5, Androgen receptor (Homo sapiens, UniProt P10275); assay: Antagonist activity for androgen receptor; type: functional
T5 sequence (P10275 whole entry): T4 sequence (whole entry)

[10] = target: T2, Progesterone receptor (Rattus norvegicus); assay: Percentage inhibition of progesterone-induced stimulation when administered orally at 3 mg/kg in rat decidualization assay; type: functional, organism-based; set-up: dose 3 mg/kg

Compound | IC50 [4] [nM] | IC50 (Progesterone receptor [5]) [nM] | EC50 (Progesterone receptor [6]) [nM] | other results
Cn1c(C#N)ccc1-c1ccc2c(c1)C(C)(C)OC(=O)N2 | 4.9 | > 3000 |  | EC50 (Progesterone receptor [1]): 1.1 nM; inhibition [2]: 50%; Efficacy [3]: 80%
CC1(C)OC(=O)Nc2ccc(-c3cnc(C#N)o3)cc21 |  | ~3000 | > 1000 | 
CC#C[C@]1(O)CC[C@H]2[C@@H]3CCC4=CC(=O)CCC4=C3[C@@H](c3ccc(N(C)C)cc3)C[C@@]21C [MIFEPRISTONE] | 0.7 |  |  | 
Cn1cc(-c2ccc3c(c2)C(C)(C)OC(=O)N3)cc1C#N | 88 | 41 | > 1000 | 
CCn1c(C#N)ccc1-c1ccc2c(c1)C(C)(C)OC(=O)N2 | 9.4 | ~3000 |  | EC50 (Progesterone receptor [1]): 1.8 nM; inhibition [2]: 30%; Efficacy [3]: 80%
CC1(C)OC(=O)Nc2ccc(-c3ccc[nH]3)cc21 |  | ~3000 | > 3000 | 
N#Cc1cccc(-c2ccc3c(c2)C2(CCCCC2)C(=O)N3)c1 |  |  |  | Activity [7]: inactive; Activity [8]: inactive; IC50 [9]: > 1000 nM; IC50 (Androgen receptor): > 1000 nM
O=C1Nc2ccc(-c3ccc([N+](=O)[O-])[nH]3)cc2C12CCCCC2 |  | 36 | > 1000 | inhibition [10]: 50%
Cn1ccc(C#N)c1-c1ccc2c(c1)C(C)(C)OC(=O)N2 |  | ~3000 | > 1000 | 
CC(=O)[C@H]1CC[C@H]2[C@@H]3CCC4=CC(=O)CC[C@]4(C)[C@H]3CC[C@]12C [PROGESTERONE] | 3.4 |  |  | 
CC1(C)OC(=O)Nc2ccc(-c3cccc(C#N)c3)cc21 | 18 | 8 | ~1000 | 
CC1(C)OC(=O)Nc2ccc(-c3ccc([N+](=O)[O-])[nH]3)cc21 |  | 180 | ~1000 | 
Cn1c(-c2ccc3c(c2)C(C)(C)OC(=O)N3)cnc1C#N |  | > 3000 | 130 | 
CC1(C)OC(=O)Nc2ccc(-c3ccc(C=O)[nH]3)cc21 |  | > 3000 | ~1000 | 
N#Cc1ccc(-c2ccc3c(c2)C2(CCCCC2)C(=O)N3)[nH]1 |  | > 3000 | 60 | 
CC1(C)OC(=O)Nc2ccc(-c3c[nH]c(C#N)c3)cc21 |  | ~2000 | > 1000 | 
Cn1c(C#N)ccc1-c1ccc2c(c1)C1(CCCCC1)C(=O)N2 | 3.4 | > 3000 | 2.8 | 
CC1(C)OC(=O)Nc2ccc(-c3ccc(C#N)[nH]3)cc21 | 29 | > 3000 | 2.1 | 
CC1(C)OC(=O)Nc2ccc(-c3ccc(C#N)s3)cc21 |  | 23 | ~1000 | 
CC1(C)OC(=O)Nc2ccc(-c3ccc(C(=O)C(F)(F)F)[nH]3)cc21 |  | > 3000 | ~1000 | 
CC1(C)OC(=O)Nc2ccc(-c3ccc(C#N)o3)cc21 |  | 65 | ~3000 | 
CC1(C)OC(=O)Nc2ccc(-c3[nH]ccc3C#N)cc21 |  | > 3000 | > 1000 | 
